Source: ChEMBL document CHEMBL4480396 (Eur J Med Chem, 2019)

What was measured:
Type in all cases: functional, cell-based
PC-3 = assay: Antiproliferative activity against human PC3 cells measured after 48 hrs by MTT assay; conditions: PC-3, 48 h
HepG2 = assay: Antiproliferative activity against human HepG2 cells measured after 48 hrs by MTT assay; conditions: HepG2, 48 h
MGC-803 = assay: Antiproliferative activity against human MGC803 cells measured after 48 hrs by MTT assay; conditions: MGC-803, 48 h

Row | SMILES | IC50 (PC-3) | IC50 (HepG2) | IC50 (MGC-803)
1 | C#CCOc1ccc2c(C)cc(=O)oc2c1 | > 80 µM | > 80 µM | > 80 µM
2 | COc1ccc(CN(C(=O)Cn2cc(CSC3=NCCS3)nn2)c2cc(OC)c(OC)c(OC)c2)cc1 | 16 µM | 25 µM | 1.61 µM
3 | COc1ccc(CN(C(=O)Cn2cc(COc3cc(=O)oc4ccccc34)nn2)c2cc(OC)c(OC)c(OC)c2)cc1 | 5.14 µM | 6.25 µM | 3.66 µM
4 | C#CCOc1ccc2ccc(=O)oc2c1 | > 80 µM | > 80 µM | > 80 µM
5 | COc1ccc(CN(C(=O)Cn2cc(CSc3nnc(-c4ccccc4)c(-c4ccccc4)n3)nn2)c2cc(OC)c(OC)c(OC)c2)cc1 | 19.6 µM | 21.8 µM | 1.52 µM
6 | COc1ccc(CN(C(=O)Cn2cc(CNS(=O)(=O)c3ccc(C)cc3)nn2)c2cc(OC)c(OC)c(OC)c2)cc1 | 12.4 µM | 30.5 µM | 1.58 µM
7 | COc1ccc(CN(C(=O)Cn2cc(CSc3nncs3)nn2)c2cc(OC)c(OC)c(OC)c2)cc1 | 16.5 µM | 38.6 µM | 5 µM
8 | COc1ccc(CN(C(=O)Cn2cc(CSc3nc4ccccc4o3)nn2)c2cc(OC)c(OC)c(OC)c2)cc1 | 5.05 µM | 15.6 µM | 1.85 µM
9 | COc1ccc(CN(C(=O)Cn2cc(COc3ccc4ccc(=O)oc4c3)nn2)c2cc(OC)c(OC)c(OC)c2)cc1 | 0.86 µM | 1.3 µM | 0.18 µM
